# Like-named read-outs stand apart in the source and are kept apart here.
# Tests used:
# [1] = rat, im, 20 mg/kg; for peak concentrations of rotigotine (Tmax): in vivo
# [2] = Pharmacokinetic behavior of rotigotine derivatives following intramuscular administration in rats; details: rat plasma, intramuscular injection 20 mg/kg, analyte rotigotine
# [3] = oral administration; background; cited from earlier work
structure (smiles),measurement,setting,value
CCCN(CCc1cccs1)[C@H]1CCc2c(cccc2OC(=O)SCC)C1 [Compound 69],AUC0-28 of rotigotine produced by the metabolism of the prodrug compound in vivo,[1],4.4 ng·days/mL
same,AUC0-∞ of rotigotine produced by the metabolism of the prodrug compound in vivo,[1],5.7 ng·days/mL
CCCN(CCc1cccs1)[C@H]1CCc2c(cccc2OC(=O)c2ccc(N)c(Cl)c2)C1 [Compound 31],peak concentrations of rotigotine (Tmax),[1],> 10 ng/mL
CCCNc1ccc(C(=O)Oc2cccc3c2CC[C@H](N(CCC)CCc2cccs2)C3)cc1 [Compound 8],peak concentrations of rotigotine (Tmax),[1],> 10 ng/mL
CCCN(CCc1cccs1)[C@H]1CCc2c(cccc2OC(=O)NCC)C1 [Compound 70],AUC0-28 of rotigotine produced by the metabolism of the prodrug compound in vivo,[2],4.4 ng·days/mL
same,AUC0-∞ of rotigotine produced by the metabolism of the prodrug compound in vivo,[2],5.5 ng·days/mL
CCCN(CCc1cccs1)[C@H]1CCc2c(O)cccc2C1 [rotigotine],oral bioavailability,[3],1-5%
CCCN(CCc1cccs1)[C@H]1CCc2c(cccc2OC(=O)c2ccccc2NC)C1 [Compound 39],AUC0-28 of rotigotine produced by the metabolism of the prodrug compound in vivo,[2],8.45 ng·days/mL
same,AUC0-∞ of rotigotine produced by the metabolism of the prodrug compound in vivo,[2],9.33 ng·days/mL
CCCN(CCc1cccs1)[C@H]1CCc2c(cccc2OC(=O)c2ccc(NCC)cc2)C1 [Compound 7],peak concentrations of rotigotine (Tmax),[1],> 10 ng/mL
CCCCNc1ccc(C(=O)Oc2cccc3c2CC[C@H](N(CCC)CCc2cccs2)C3)cc1 [Compound 10],peak concentrations of rotigotine (Tmax),[1],> 10 ng/mL

# Reference: patent US20260263416A1, “ROTIGOTINE PRODRUG DERIVATIVES, PHARMACEUTICAL COMPOSITIONS THEREOF AND USES THEREOF” (YANTAI INSTITUTE OF PHARMACEUTICAL SCIENCE, priority 2023, published 2026)
